Values of other authors as cited in US20140228389A1, “DRY POWDER COMPOUND FORMULATIONS AND USES THEREOF” (Wyeth, LLC, priority 2006, published 2014).

Experiments:
opioid receptors = settings: found in U.S. Ser. No. 11/441,395 and 11/441,452
[1] = white crystalline powder from Mallinckrodt Pharmaceuticals

SMILES	opioid activity (agonist or antagonist) (opioid receptors)	solubility in water [1]
C[N+]1(CC2CC2)CCC23c4c5ccc(O)c4OC2C(=O)CCC3(O)C1C5 (single isomer, unassigned) [R—N isomer of methylnaltrexone]	opioid antagonist	
C[N+]1(CC2CC2)CC[C@]23c4c5ccc(O)c4O[C@H]2C(=O)CC[C@@]3(O)[C@H]1C5.[Br-] (stereo partly drawn) [S—N isomer of methylnaltrexone, S-Methylnaltrexone bromide]	opioid agonist	
C[N+]1(CC2CC2)CC[C@]23c4c5ccc(O)c4O[C@H]2C(=O)CC[C@@]3(O)[C@H]1C5.[Br-] (stereo partly drawn) [Methylnaltrexone, Methylnaltrexone bromide]		freely soluble in water
